Drawing on patent US20250382344A1, “Soluble GLP1/GIP/NPY2 Receptor Triple Agonists” (Boehringer Ingelheim International GmH, priority 2024, published 2025), this text covers EC50 and solubility for five molecules.

One data set deals with T1, hGIPR (Homo sapiens, UniProt P48546).
T1 construct: expressed in transfected cells; host or cells: CHO CRE-luciferase reporter cells
T1 sequence (P48546 22-466): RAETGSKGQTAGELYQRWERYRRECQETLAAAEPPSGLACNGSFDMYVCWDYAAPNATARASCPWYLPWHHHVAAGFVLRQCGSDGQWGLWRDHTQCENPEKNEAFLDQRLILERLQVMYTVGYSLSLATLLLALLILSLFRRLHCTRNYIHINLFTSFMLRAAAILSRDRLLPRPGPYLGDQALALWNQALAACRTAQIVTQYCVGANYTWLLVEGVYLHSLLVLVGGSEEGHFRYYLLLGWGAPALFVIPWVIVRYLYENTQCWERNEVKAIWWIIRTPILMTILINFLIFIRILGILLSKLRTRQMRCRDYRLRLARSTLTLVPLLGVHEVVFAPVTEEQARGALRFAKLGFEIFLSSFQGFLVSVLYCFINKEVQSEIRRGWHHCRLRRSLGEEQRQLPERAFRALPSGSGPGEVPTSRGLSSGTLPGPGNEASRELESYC
Description: hGIPR CreLuc assay in 0.5% and 100% plasma (CHO CRE-luciferase reporter cells). It is filed as cell-based. (In general: Reporter assays use an easily measured gene product as a stand-in for the process of interest.)

Data set [1] can be described thus: Solubility in 0.1 M phosphate buffer at pH 7. It is filed as physicochemical. The note with it: 0.1 M phosphate buffer at pH 7, 10 mg/mL final peptide concentration, shaking 2 hours at room temperature, peptides as TFA-salts, measured sample pH 6.5-7.0.
Setting [2] is: 0.5% human plasma, read-out: hGIPR 0.5% hP.
[3] abbreviates: 100% human plasma, read-out: hGIPR 100% hP.

Where two headings read alike, the source gives them in different places.

Turning to `CC[C@H](C)[C@H](NC(=O)[C@H](CC(C)C)NC(=O)[C@H](Cc1c[nH]cn1)NC(=O)[C@H](CCCNC(=N)N)NC(=O)[C@@H](NC(=O)[C@H](Cc1ccccc1)NC(=O)[C@H](C)NC(=O)C(C)(C)NC(=O)[C@H](Cc1ccc(O)cc1)NC(=O)[C@H](C)NC(=O)[C@H](CCC(N)=O)NC(=O)[C@H](CCCCN)NC(=O)[C@H](CCC(=O)O)NC(=O)[C@H](CC(C)C)NC(=O)C(C)(C)NC(=O)[C@@H](NC(=O)[C@H](CO)NC(=O)[C@H](Cc1ccc(O)cc1)NC(=O)[C@H](CC(=O)O)NC(=O)[C@H](CO)NC(=O)[C@@H](NC(=O)[C@H](Cc1ccccc1)NC(=O)[C@@H](NC(=O)CNC(=O)[C@H](CCC(=O)O)NC(=O)C(C)(C)NC(=O)[C@@H](N)Cc1ccc(O)cc1)[C@@H](C)O)[C@@H](C)O)[C@@H](C)CC)C(C)C)C(=O)N[C@@H](CC(N)=O)C(=O)N[C@@H](CCCCNC(=O)[C@@H](N)CCCCNC(=O)CC[C@H](NC(=O)CC[C@H](NC(=O)CC[C@H](NC(=O)CC[C@H](NC(=O)CC[C@H](NC(=O)CC[C@H](NC(=O)CCCCCCCCCCCCCCCCC(=O)O)C(=O)O)C(=O)O)C(=O)O)C(=O)O)C(=O)O)C(=O)O)C(=O)NC(C)(C)C(=O)N[C@H](C(=O)N[C@@H](CCCNC(=N)N)C(=O)N[C@@H](CCC(N)=O)C(=O)N[C@@H](CCCNC(=N)N)C(=O)N[C@@H](Cc1ccc(O)cc1)C(N)=O)[C@@H](C)O` [Compound 84, Y-Aib-E-G-T-F-T-S-D-Y-S-I-Aib-L-E-K-Q-A-Y-Aib-A-F-V-R-H-L-I-N-K(1,3)-Aib-T-R-Q-R-Y-NH2.C18DA-gGlu-gGlu-gGlu-gGlu-gGlu-gGlu-eLys(1,2)], at hGIPR (setting [2]), the EC50 was found to be 5 nM. Moreover, in data set [1], the solubility (commonly how much of the substance goes into solution per volume) at 2 h turned out to be 4100 µg/mL.

With `CC[C@H](C)[C@H](NC(=O)[C@H](CC(C)C)NC(=O)[C@H](Cc1c[nH]cn1)NC(=O)[C@H](CCCNC(=N)N)NC(=O)[C@@H](NC(=O)[C@H](Cc1ccccc1)NC(=O)[C@H](C)NC(=O)C(C)(C)NC(=O)[C@H](CCC(N)=O)NC(=O)[C@H](CCCNC(=N)N)NC(=O)[C@H](CCC(N)=O)NC(=O)[C@H](CCCCN)NC(=O)[C@H](CCC(=O)O)NC(=O)[C@H](CC(C)C)NC(=O)C(C)(C)NC(=O)[C@@H](NC(=O)[C@H](CO)NC(=O)[C@H](Cc1ccc(O)cc1)NC(=O)[C@H](CC(=O)O)NC(=O)[C@H](CO)NC(=O)[C@@H](NC(=O)[C@H](Cc1ccccc1)NC(=O)[C@@H](NC(=O)CNC(=O)[C@H](CCC(=O)O)NC(=O)C(C)(C)NC(=O)[C@@H](N)Cc1ccc(O)cc1)[C@@H](C)O)[C@@H](C)O)[C@@H](C)CC)C(C)C)C(=O)N[C@@H](CC(N)=O)C(=O)N[C@@H](CCCCNC(=O)[C@@H](N)CCCCNC(=O)CC[C@H](NC(=O)CC[C@H](NC(=O)CC[C@H](NC(=O)CC[C@H](NC(=O)CC[C@H](NC(=O)CC[C@H](NC(=O)CCCCCCCCCCCCCCCCC(=O)O)C(=O)O)C(=O)O)C(=O)O)C(=O)O)C(=O)O)C(=O)O)C(=O)NC(C)(C)C(=O)N[C@H](C(=O)N[C@@H](CCCNC(=N)N)C(=O)N[C@@H](CCC(N)=O)C(=O)N[C@@H](CCCNC(=N)N)C(=O)N[C@@H](Cc1ccc(O)cc1)C(N)=O)[C@@H](C)O` [Compound 91, Y-Aib-E-G-T-F-T-S-D-Y-S-I-Aib-L-E-K-Q-R-Q-Aib-A-F-V-R-H-L-I-N-K(1,3)-Aib-T-R-Q-R-Y-NH2.C18DA-gGlu-gGlu-gGlu-gGlu-gGlu-Glu-eLys(1,2)], the values for the EC50 at hGIPR (setting [2]) and at hGIPR (setting [3]) were 0.8 nM and 14.4 nM, respectively. In addition, the solubility in data set [1] (read-out: Solubility) is 2200 µg/mL.

Regarding `CC[C@H](C)[C@H](NC(=O)[C@H](CC(C)C)NC(=O)[C@H](Cc1c[nH]cn1)NC(=O)[C@H](CCCNC(=N)N)NC(=O)[C@@H](NC(=O)[C@H](Cc1ccccc1)NC(=O)[C@H](C)NC(=O)C(C)(C)NC(=O)[C@H](CCC(N)=O)NC(=O)[C@H](C)NC(=O)[C@H](CCC(N)=O)NC(=O)[C@H](CCCCN)NC(=O)[C@H](CCC(=O)O)NC(=O)[C@H](CC(C)C)NC(=O)C(C)(C)NC(=O)[C@@H](NC(=O)[C@H](CO)NC(=O)[C@H](Cc1ccc(O)cc1)NC(=O)[C@H](CC(=O)O)NC(=O)[C@H](CO)NC(=O)[C@@H](NC(=O)[C@H](Cc1ccccc1)NC(=O)[C@@H](NC(=O)CNC(=O)[C@H](CCC(=O)O)NC(=O)C(C)(C)NC(=O)[C@@H](N)Cc1ccc(O)cc1)[C@@H](C)O)[C@@H](C)O)[C@@H](C)CC)C(C)C)C(=O)N[C@@H](CC(N)=O)C(=O)N[C@@H](CCCCNC(=O)CC[C@H](NC(=O)[C@@H](N)CCCCNC(=O)CC[C@H](NC(=O)CC[C@H](NC(=O)CC[C@H](NC(=O)CC[C@H](NC(=O)CC[C@H](NC(=O)CCCCCCCCCCCCCCCCCCC(=O)O)C(=O)O)C(=O)O)C(=O)O)C(=O)O)C(=O)O)C(=O)O)C(=O)NC(C)(C)C(=O)N[C@H](C(=O)N[C@@H](CCCNC(=N)N)C(=O)N[C@@H](CCC(N)=O)C(=O)N[C@@H](CCCNC(=N)N)C(=O)N[C@@H](Cc1ccc(O)cc1)C(N)=O)[C@@H](C)O` [Compound 94, Y-Aib-E-G-T-F-T-S-D-Y-S-I-Aib-L-E-K-Q-A-Q-Aib-A-F-V-R-H-L-I-N-K(1,3)-Aib-T-R-Q-R-Y-NH2.C20DA-gGlu-gGlu-gGlu-gGlu-gGlu-eLys-gGlu(1,2)], the EC50 on hGIPR (setting [2]) was 0.3 nM. In addition, the solubility at 2 h in data set [1] came out at 9000 µg/mL.

On to `CC[C@H](C)[C@H](NC(=O)[C@H](CC(C)C)NC(=O)[C@H](Cc1c[nH]cn1)NC(=O)[C@H](CCCNC(=N)N)NC(=O)[C@@H](NC(=O)[C@H](Cc1ccccc1)NC(=O)[C@H](C)NC(=O)C(C)(C)NC(=O)[C@H](CCC(N)=O)NC(=O)[C@H](C)NC(=O)[C@H](CCC(N)=O)NC(=O)[C@H](C)NC(=O)[C@H](CCC(=O)O)NC(=O)[C@H](CC(C)C)NC(=O)C(C)(C)NC(=O)[C@@H](NC(=O)[C@H](CO)NC(=O)[C@H](Cc1ccc(O)cc1)NC(=O)[C@H](CC(=O)O)NC(=O)[C@H](CO)NC(=O)[C@@H](NC(=O)[C@H](Cc1ccccc1)NC(=O)[C@@H](NC(=O)CNC(=O)[C@H](CCC(=O)O)NC(=O)C(C)(C)NC(=O)[C@@H](N)Cc1ccc(O)cc1)[C@@H](C)O)[C@@H](C)O)[C@@H](C)CC)C(C)C)C(=O)N[C@@H](CC(N)=O)C(=O)N[C@@H](CCCCNC(=O)[C@@H](N)CCCCNC(=O)CC[C@H](NC(=O)CC[C@H](NC(=O)CC[C@H](NC(=O)CC[C@H](NC(=O)CC[C@H](NC(=O)CC[C@H](NC(=O)CCCCCCCCCCCCCCCCC(=O)O)C(=O)O)C(=O)O)C(=O)O)C(=O)O)C(=O)O)C(=O)O)C(=O)NC(C)(C)C(=O)N[C@H](C(=O)N[C@@H](CCCNC(=N)N)C(=O)N[C@@H](CCC(N)=O)C(=O)N[C@@H](CCCNC(=N)N)C(=O)N[C@@H](Cc1ccc(O)cc1)C(N)=O)[C@@H](C)O` [Compound 123, Y-Aib-E-G-T-F-T-S-D-Y-S-I-Aib-L-E-A-Q-A-Q-Aib-A-F-V-R-H-L-I-N-K(1,3)-Aib-T-R-Q-R-Y-NH2.C18DA-gGlu-gGlu-gGlu-gGlu-gGlu-gGlu-eLys(1,2)], for which the EC50 at hGIPR (setting [2]) amounted to 0.3 nM. Besides, the solubility at 2 h in data set [1] was 4300 µg/mL.

As to `CC[C@H](C)[C@H](NC(=O)[C@H](CC(C)C)NC(=O)[C@H](Cc1c[nH]cn1)NC(=O)[C@H](CCCNC(=N)N)NC(=O)[C@@H](NC(=O)[C@H](Cc1ccccc1)NC(=O)[C@H](C)NC(=O)C(C)(C)NC(=O)[C@H](CCC(N)=O)NC(=O)[C@H](C)NC(=O)[C@H](CCC(N)=O)NC(=O)[C@H](CCCCN)NC(=O)[C@H](CCC(=O)O)NC(=O)[C@H](CC(C)C)NC(=O)C(C)(C)NC(=O)[C@@H](NC(=O)[C@H](CO)NC(=O)[C@H](Cc1ccc(O)cc1)NC(=O)[C@H](CC(=O)O)NC(=O)[C@H](CO)NC(=O)[C@@H](NC(=O)[C@H](Cc1ccccc1)NC(=O)[C@@H](NC(=O)CNC(=O)[C@H](CCC(=O)O)NC(=O)C(C)(C)NC(=O)[C@@H](N)Cc1ccc(O)cc1)[C@@H](C)O)[C@@H](C)O)[C@@H](C)CC)C(C)C)C(=O)N[C@@H](CC(N)=O)C(=O)N[C@@H](CCCCNC(=O)CC[C@H](NC(=O)CC[C@H](NC(=O)CC[C@H](NC(=O)CC[C@H](NC(=O)CC[C@H](NC(=O)CC[C@H](NC(=O)[C@H]1CC[C@H](CNC(=O)CCCCCCCCCCCCCCCCCCC(=O)O)CC1)C(=O)O)C(=O)O)C(=O)O)C(=O)O)C(=O)O)C(=O)O)C(=O)NC(C)(C)C(=O)N[C@H](C(=O)N[C@@H](CCCNC(=N)N)C(=O)N[C@@H](CCC(N)=O)C(=O)N[C@@H](CCCNC(=N)N)C(=O)N[C@@H](Cc1ccc(O)cc1)C(N)=O)[C@@H](C)O` [Compound 133, Y-Aib-E-G-T-F-T-S-D-Y-S-I-Aib-L-E-K-Q-A-Q-Aib-A-F-V-R-H-L-I-N-K(1,3)-Aib-T-R-Q-R-Y-NH2.C20DA-TRX-gGlu-gGlu-gGlu-gGlu-gGlu-gGlu(1,2)], the EC50 at hGIPR (setting [2]) stood at 0.3 nM; on hGIPR (setting [3]) it was 3.4 nM. Moreover, the solubility at 2 h in data set [1] was 4200 µg/mL.
